{"source": "patent US5932227A", "about": "“Percutaneously administrable base composition and drug composition prepared therefrom” (Hisamitsu Pharmaceutical Co., Inc., priority 1992, dated 1999)", "assay": "concentration in blood of tulobuterol upon administering to a rat, compared with oral administration", "type": "in vivo", "conditions": "oral 10 mg/kg", "data": [{"smiles": "CC(C)(C)NCC(O)c1ccccc1Cl", "note": "(centres unmarked) [tulobuterol]", "values": [{"measurement": "AUC", "setting": "blood", "value": 91000, "unit": "ng·h/mL"}, {"measurement": "bioavailability", "setting": "blood", "value": 5.37, "unit": "%"}, {"measurement": "concentration in blood of tulobuterol", "setting": "0.25 hr", "value": 227.0}, {"measurement": "concentration in blood of tulobuterol", "setting": "0.5 hr", "value": 37.7}, {"measurement": "concentration in blood of tulobuterol", "setting": "1 hr", "value": 17.1}, {"measurement": "concentration in blood of tulobuterol", "setting": "2 hr", "value": 4.3}, {"measurement": "concentration in blood of tulobuterol", "setting": "4 hr", "value": 0.8}, {"measurement": "concentration in blood of tulobuterol", "setting": "6 hr", "value": 0, "unit": "ng/mL"}, {"measurement": "concentration in blood of tulobuterol", "setting": "8 hr", "value": 0, "unit": "ng/mL"}, {"measurement": "concentration in blood of tulobuterol", "setting": "12 hr", "value": 0, "unit": "ng/mL"}, {"measurement": "concentration in blood of tulobuterol", "setting": "24 hr", "value": 0, "unit": "ng/mL"}]}]}
